Results on eight compounds are retold here after ChEMBL document CHEMBL4265885, “New piperidine-based derivatives as sigma receptor ligands. Synthesis and pharmacological evaluation” (Bioorg Med Chem Lett, 2018).

Each structure is given as a SMILES string. pKi: −log10 of the molar value.

In the first test the target is T1, Sigma intracellular receptor 2 (Rattus norvegicus, UniProt Q5U3Y7).
T1 sequence (Q5U3Y7 whole entry): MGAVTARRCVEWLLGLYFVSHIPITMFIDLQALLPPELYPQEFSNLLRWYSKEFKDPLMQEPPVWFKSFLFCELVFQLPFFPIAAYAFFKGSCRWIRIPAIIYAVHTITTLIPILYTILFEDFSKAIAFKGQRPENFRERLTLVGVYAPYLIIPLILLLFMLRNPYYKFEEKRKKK
As to the kind of experiment: Displacement of [3H]-DTG from sigma2 receptor in rat liver membranes after 120 mins by liquid scintillation counting. The format is cell membranes, Membrane.
As usually defined, the pKi is −log10 of the Ki, conventionally taken in molar units. Read a high pKi as a small Ki. `CCN(CC1CCN(Cc2ccccc2)CC1)C(C)=O` had a pKi of 6.37.

Another test is filed under the species Rattus norvegicus. As to the kind of experiment: Selectivity index, ratio of Ki for sigma2 receptor in rat liver membranes to Ki for sigma1 receptor in rat liver membranes. It counts as cell membranes.
For the compound `CCN(CC1CCN(Cc2ccccc2)CC1)C(C)=O`, the Ratio Ki amounted to 4.3.

The next test has as its system PANC-1. Put plainly: Cytotoxicity against human PANC1 cells at 50 uM after 48 hrs by MTT assay. The format is functional. For orientation: Tetrazolium dyes change colour on reduction, which living cells bring about.
In turn, `c1ccc(CCN2CCCCC2)cc1` yielded an Activity of 21%.
Compound `Cc1ccccc1NC(=N)Nc1ccccc1C` [DITOLYLGUANIDINE] showed an Activity of 80%.
`O=C(CCCN1CCC(O)(c2ccc(Cl)cc2)CC1)c1ccc(F)cc1` [HALOPERIDOL] gave an Activity of 66%.
As for `CC(C)=CCN1CCC2(C)c3cc(O)ccc3CC1C2C` (stereo unspecified) [PENTAZOCINE], the Activity is given as 5%.
Regarding `Fc1ccc(-n2cc(CCCCN3CCC4(CC3)OCc3ccccc34)c3ccccc32)cc1` [SIRAMESINE], the Activity came to 90%.
In the case of `CCCN(CCC)CCc1ccc(OC)c(OCCc2ccccc2)c1`, the Activity was 92%.

For another test, the target named is Sigma non-opioid intracellular receptor 1 (Rattus norvegicus, UniProt Q9R0C9). Put plainly: Displacement of [3H]-(+)-pentazocine from sigma1 receptor in rat liver membranes after 120 mins by liquid scintillation counting. The format is cell membranes, Membrane. (Displacement assays read how much labelled ligand stays bound in the presence of the test substance.)
Sequence of Sigma non-opioid intracellular receptor 1 (Q9R0C9 whole entry): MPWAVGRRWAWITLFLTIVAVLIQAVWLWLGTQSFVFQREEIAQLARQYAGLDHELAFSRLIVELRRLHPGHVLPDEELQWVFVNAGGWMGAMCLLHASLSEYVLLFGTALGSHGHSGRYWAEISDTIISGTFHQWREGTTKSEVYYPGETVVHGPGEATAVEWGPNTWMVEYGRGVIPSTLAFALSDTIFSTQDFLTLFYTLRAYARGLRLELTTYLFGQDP
Turning to `CCCN(CC1CCN(Cc2ccccc2)CC1)C(C)=O`, the pKi was 7.43.
`CCN(CC1CCN(Cc2ccccc2)CC1)C(C)=O` had a pKi of 7.01.

For the next test, the system named is SH-SY5Y. Put plainly: Cytotoxicity against human SH-SY5Y cells at 50 uM after 48 hrs by MTT assay. The format is functional.
On to `c1ccc(CCN2CCCCC2)cc1`, for which the Activity is 21%.
For the compound `Cc1ccccc1NC(=N)Nc1ccccc1C` [DITOLYLGUANIDINE], the Activity was found to be 80%.
The compound `O=C(CCCN1CCC(O)(c2ccc(Cl)cc2)CC1)c1ccc(F)cc1` [HALOPERIDOL] gave an Activity of 66%.
For `CC(C)=CCN1CCC2(C)c3cc(O)ccc3CC1C2C` (stereo unspecified) [PENTAZOCINE], the Activity was 5%.
Compound `Fc1ccc(-n2cc(CCCCN3CCC4(CC3)OCc3ccccc34)c3ccccc32)cc1` [SIRAMESINE] displayed an Activity of 90%.
Regarding `CCCN(CCC)CCc1ccc(OC)c(OCCc2ccccc2)c1`, the Activity came to 92%.
